From patent US8912189B2, “Pyridopyrazine derivatives and their use” (Aeterna Zentaris GmbH, priority 2011, dated 2014)

Question: For `CCNC(=O)Nc1ccc2ncc(-c3cnn(Cc4ccc(Cl)cc4)c3)nc2n1` [Compound 18, 1-{3-[1-(4-Chloro-benzyl)-1H-pyrazol-4-yl]-pyrido[2,3-b]pyrazin-6-yl}-3-ethyl-urea], which melting point is on record?
Answer: Its melting point is 240 to 244 °C.

Question: For `CCNC(=S)Nc1ccc2ncc(-c3cnn(Cc4cccc(OCC)c4)c3)nc2n1` [Compound 49, 1-{3-[1-(3-Ethoxy-benzyl)-1H-pyrazol-4-yl]-pyrido[2,3-b]pyrazin-6-yl}-3-ethyl-thiourea], which melting point is on record?
Answer: Its melting point is 222 °C.

Question: Which melting point does the source give for `CCNC(=S)Nc1ccc2ncc(-c3cnn(CCc4ccccc4)c3)nc2n1` [Compound 53, 1-Ethyl-3-[3-(1-phenethyl-1H-pyrazol-4-yl)-pyrido[2,3-b]pyrazin-6-yl]-thiourea] here?
Answer: Its melting point is 231 to 233 °C.

Question: Which melting point does the source give for `COCCNC(=S)Nc1ccc2ncc(-c3cnn(Cc4ccc(OC)c(OC)c4)c3)nc2n1` [Compound 7, 1-{3-[1-(3,4-Dimethoxy-benzyl)-1H-pyrazol-4-yl]-pyrido[2,3-b]pyrazin-6-yl}-3-(2-methoxy-ethyl)-thiourea] here?
Answer: The melting point was 198 °C.

Question: With `CCNC(=O)Nc1ccc2ncc(-c3cnn(CCNC(=O)OC(C)(C)C)c3)nc2n1` [Compound 406, (2-{4-[6-(3-Ethyl-ureido)-pyrido[2,3-b]pyrazin-3-yl]-pyrazol-1-yl}ethyl)-carbamic acid tert-butyl ester] as the compound, how does the melting point read?
Answer: The melting point was 235 °C.

Question: Which melting point does the source give for `CCNC(=O)Nc1ccc2ncc(-c3cnn(Cc4ccc(C#N)cc4)c3)nc2n1` [Compound 10, 1-{3-[1-(4-Cyano-benzyl)-1H-pyrazol-4-yl]-pyrido[2,3-b]pyrazin-6-yl}-3-ethyl-urea] here?
Answer: Its melting point is 208 to 215 °C.

Question: With `CCNC(=O)Nc1ccc2ncc(-c3cnn(Cc4ccc(Br)c(C)c4)c3)nc2n1` [Compound 22, 1-{3-[1-(4-Bromo-3-methyl-benzyl)-1H-pyrazol-4-yl]-pyrido[2,3-b]pyrazin-6-yl}-3-ethyl-urea] as the compound, how does the melting point read?
Answer: Its melting point is 250 to 252 °C.

Question: Which melting point does the source give for `CCNC(=O)Nc1ccc2ncc(-c3cnn(Cc4cc(OC)c(OC)c(OC)c4)c3)nc2n1` [Compound 1, 1-Ethyl-3-{3-[1-(3,4,5-trimethoxy-benzyl)-1H-pyrazol-4-yl]-pyrido[2,3-b]pyrazin-6-yl}-urea] here?
Answer: The melting point was 219 °C.

Question: For `CCNC(=O)Nc1ccc2ncc(-c3cnn(Cc4cccc(OCCOC)c4)c3)nc2n1` [Compound 66, 1-Ethyl-3-(3-{1-[3-(2-methoxy-ethoxy)-benzyl]-1H-pyrazol-4-yl}-pyrido[2,3-b]pyrazin-6-yl)-urea], which melting point is on record?
Answer: Its melting point is 201 °C.

Question: For `CCNC(=O)Nc1ccc2ncc(-c3cnn(CCC(N)=O)c3)nc2n1` [Compound 404, 3-{4-[6-(3-Ethyl-ureido)-pyrido[2,3-b]pyrazin-3-yl]-pyrazol-1-yl}-propionamide], which melting point is on record?
Answer: The melting point was 247 °C.

Question: Which melting point does the source give for `CCNC(=S)Nc1ccc2ncc(-c3cnn(Cc4cccc(C)c4F)c3)nc2n1` [Compound 48, 1-Ethyl-3-{3-[1-(2-fluoro-3-methyl-benzyl)-1H-pyrazol-4-yl]-pyrido[2,3-b]pyrazin-6-yl}-thiourea] here?
Answer: The melting point was 242 to 245 °C.

Question: Which melting point does the source give for `CCNC(=O)Nc1ccc2ncc(-c3cnn(Cc4ccc(C)cc4)c3)nc2n1` [Compound 15, 1-Ethyl-3-{3-[1-(4-methyl-benzyl)-1H-pyrazol-4-yl]-pyrido[2,3-b]pyrazin-6-yl}-urea] here?
Answer: The melting point was 217 to 220 °C.

Question: With `CCNC(=O)Nc1ccc2ncc(-c3cnn(Cc4ccc(F)c(Cl)c4)c3)nc2n1` [Compound 8, 1-{3-[1-(3-Chloro-4-fluoro-benzyl)-1H-pyrazol-4-yl]-pyrido[2,3-b]pyrazin-6-yl}-3-ethyl-urea] as the compound, how does the melting point read?
Answer: Its melting point is 214 to 219 °C.

Question: For `CCNC(=S)Nc1ccc2ncc(-c3cnn(Cc4ccc(C)cc4)c3)nc2n1` [Compound 20, 1-Ethyl-3-{3-[1-(4-methyl-benzyl)-1H-pyrazol-4-yl]-pyrido[2,3-b]pyrazin-6-yl}-thiourea], which melting point is on record?
Answer: Its melting point is 241 °C.

Question: For `CCNC(=O)Nc1ccc2ncc(-c3cnn(CCCCc4ccccc4)c3)nc2n1` [Compound 16, 1-Ethyl-3-{3-[1-(4-phenyl-butyl)-1H-pyrazol-4-yl]-pyrido[2,3-b]pyrazin-6-yl}-urea], which melting point is on record?
Answer: The melting point was 182 °C.

Question: Which melting point does the source give for `CCNC(=S)Nc1ccc2ncc(-c3cnn(Cc4ccc(Cl)cc4)c3)nc2n1` [Compound 50, 1-{3-[1-(4-Chloro-benzyl)-1H-pyrazol-4-yl]-pyrido[2,3-b]pyrazin-6-yl}-3-ethyl-thiourea] here?
Answer: Its melting point is 249 °C.

Question: Which melting point does the source give for `CCNC(=S)Nc1ccc2ncc(-c3cnn(Cc4cc(C)cc(F)c4)c3)nc2n1` [Compound 25, 1-Ethyl-3-{3-[1-(3-fluoro-5-methyl-benzyl)-1H-pyrazol-4-yl]-pyrido[2,3-b]pyrazin-6-yl}-thiourea] here?
Answer: Its melting point is 257 to 259 °C.

Question: For `CCNC(=S)Nc1ccc2ncc(-c3cnn(Cc4cccnc4)c3)nc2n1` [Compound 24, 1-Ethyl-3-[3-(1-pyridin-3-ylmethyl-1H-pyrazol-4-yl)-pyrido[2,3-b]pyrazin-6-yl]-thiourea], which melting point is on record?
Answer: Its melting point is 238 °C.

Question: Which melting point does the source give for `CCNC(=S)Nc1ccc2ncc(-c3cnn(Cc4cc(OC)cc(OC)c4)c3)nc2n1` [Compound 39, 1-{3-[1-(3,5-Dimethoxy-benzyl)-1H-pyrazol-4-yl]-pyrido[2,3-b]pyrazin-6-yl}-3-ethyl-thiourea] here?
Answer: The melting point was 230 °C.

Question: Which melting point does the source give for `CCNC(=S)Nc1ccc2ncc(-c3cnn(Cc4cccc(O)c4)c3)nc2n1` [Compound 36, 1-Ethyl-3-{3-[1-(3-hydroxy-benzyl)-1H-pyrazol-4-yl]-pyrido[2,3-b]pyrazin-6-yl}-thiourea] here?
Answer: Its melting point is 239 °C.

Question: Which melting point does the source give for `COCCNC(=S)Nc1ccc2ncc(-c3cnn(Cc4cccc(OC)c4)c3)nc2n1` [Compound 32, 1-{3-[1-(3-Methoxy-benzyl)-1H-pyrazol-4-yl]-pyrido[2,3-b]pyrazin-6-yl}-3-(2-methoxy-ethyl)-thiourea] here?
Answer: Its melting point is 215 °C.

Question: For `CCNC(=S)Nc1ccc2ncc(-c3cnn(Cc4ccc5c(c4)OCO5)c3)nc2n1` [Compound 5, 1-[3-(1-Benzo[1,3]dioxol-5-ylmethyl-1H-pyrazol-4-yl)-pyrido[2,3-b]pyrazin-6-yl]-3-ethyl-thiourea], which melting point is on record?
Answer: Its melting point is 244 °C.

Question: With `COCNC(=S)Nc1ccc2ncc(-c3cnn(Cc4ccc(OC)c(OC)c4)c3)nc2n1` [Compound 35, 1-{3-[1-(3,4-Dimethoxy-benzyl)-1H-pyrazol-4-yl]-pyrido[2,3-b]pyrazin-6-yl}-3-methoxymethyl-thiourea] as the compound, how does the melting point read?
Answer: Its melting point is 188 °C.

Question: For `CCNC(=O)Nc1ccc2ncc(-c3cnn(Cc4ccc(OC(F)F)cc4)c3)nc2n1` [Compound 11, 1-{3-[1-(4-Difluoromethoxy-benzyl)-1H-pyrazol-4-yl]-pyrido[2,3-b]pyrazin-6-yl}-3-ethyl-urea], which melting point is on record?
Answer: Its melting point is 239 °C.

Question: With `CCNC(=S)Nc1ccc2ncc(-c3cnn(Cc4ccc(OC)c(OC)c4OC)c3)nc2n1` [Compound 43, 1-Ethyl-3-{3-[1-(2,3,4-trimethoxy-benzyl)-1H-pyrazol-4-yl]-pyrido[2,3-b]pyrazin-6-yl}-thiourea] as the compound, how does the melting point read?
Answer: The melting point was 213 °C.

Question: Which melting point does the source give for `Cc1cccc(Cn2cc(-c3cnc4ccc(NC(=S)NCC(F)(F)F)nc4n3)cn2)c1` [Compound 51, 1-{3-[1-(3-Methyl-benzyl)-1H-pyrazol-4-yl]-pyrido[2,3-b]pyrazin-6-yl}-3-(2,2,2-trifluoro-ethyl)-thiourea] here?
Answer: The melting point was 249 °C.

Question: For `CCNC(=O)Nc1ccc2ncc(-c3cnn(Cc4ccc(OC)c(O)c4)c3)nc2n1` [Compound 56, 1-Ethyl-3-{3-[1-(3-hydroxy-4-methoxy-benzyl)-1H-pyrazol-4-yl]-pyrido[2,3-b]pyrazin-6-yl}-urea], which melting point is on record?
Answer: Its melting point is 250 °C.

Question: Which melting point does the source give for `COCNC(=S)Nc1ccc2ncc(-c3cnn(Cc4cccc(OC)c4)c3)nc2n1` [Compound 33, 1-{3-[1-(3-Methoxy-benzyl)-1H-pyrazol-4-yl]-pyrido[2,3-b]pyrazin-6-yl}-3-methoxymethyl-thiourea] here?
Answer: The melting point was 187 °C.

Question: With `CCNC(=O)Nc1ccc2ncc(-c3ccc(C)o3)nc2n1` [Compound 416, 1-Ethyl-3-[3-(5-methyl-furan-2-yl)-pyrido[2,3-b]pyrazin-6-yl]-urea] as the compound, how does the melting point read?
Answer: Its melting point is 242 °C.

Question: With `COc1cccc(Cn2cc(-c3cnc4ccc(NC(=S)NCC(F)(F)F)nc4n3)cn2)c1` [Compound 47, 1-{3-[1-(3-Methoxy-benzyl)-1H-pyrazol-4-yl]-pyrido[2,3-b]pyrazin-6-yl}-3-(2,2,2-trifluoro-ethyl)-thiourea] as the compound, how does the melting point read?
Answer: Its melting point is 217 °C.

Question: For `CCNC(=O)Nc1ccc2ncc(-c3cnn(Cc4cccc(OC(F)F)c4)c3)nc2n1` [Compound 3, 1-{3-[1-(3-Difluoromethoxy-benzyl)-1H-pyrazol-4-yl]-pyrido[2,3-b]pyrazin-6-yl}-3-ethyl-urea], which melting point is on record?
Answer: The melting point was 198 °C.

Question: For `CCNC(=S)Nc1ccc2ncc(-c3cnn(Cc4ccc(F)c(Cl)c4)c3)nc2n1` [Compound 38, 1-{3-[1-(3-Chloro-4-fluoro-benzyl)-1H-pyrazol-4-yl]-pyrido[2,3-b]pyrazin-6-yl}-3-ethyl-thiourea], which melting point is on record?
Answer: Its melting point is 235 to 238 °C.

Question: With `CCNC(=O)Nc1ccc2ncc(-c3cnn(Cc4cccc(S(C)(=O)=O)c4)c3)nc2n1` [Compound 64, 1-Ethyl-3-{3-[1-(3-methanesulfonyl-benzyl)-1H-pyrazol-4-yl]-pyrido[2,3-b]pyrazin-6-yl}-urea] as the compound, how does the melting point read?
Answer: Its melting point is 218 °C.

Question: With `CCNC(=O)Nc1ccc2ncc(-c3cnn(CCCc4ccccc4)c3)nc2n1` [Compound 9, 1-Ethyl-3-{3-[1-(3-phenyl-propyl)-1H-pyrazol-4-yl]-pyrido[2,3-b]pyrazin-6-yl}-urea] as the compound, how does the melting point read?
Answer: The melting point was 251 °C.

Question: For `CCNC(=O)Nc1ccc2ncc(-c3csc(C(=O)O)c3)nc2n1` [Compound 212, 4-[6-(3-Ethyl-ureido)-pyrido[2,3-b]pyrazin-3-yl]-thiophene-2-carboxylic acid], which melting point is on record?
Answer: Its melting point is 250 °C (dec.).

Question: Which melting point does the source give for `CCNC(=S)Nc1ccc2ncc(-c3cnn(Cc4cccc(OCc5ccccc5)c4)c3)nc2n1` [Compound 21, 1-{3-[1-(3-Benzyloxy-benzyl)-1H-pyrazol-4-yl]-pyrido[2,3-b]pyrazin-6-yl}-3-ethyl-thiourea] here?
Answer: The melting point was 203 to 205 °C.

Question: With `CCNC(=S)Nc1ccc2ncc(-c3cnn(Cc4cccc(OC)c4OC)c3)nc2n1` [Compound 26, 1-{3-[1-(2,3-Dimethoxy-benzyl)-1H-pyrazol-4-yl]-pyrido[2,3-b]pyrazin-6-yl}-3-ethyl-thiourea] as the compound, how does the melting point read?
Answer: The melting point was 218 to 222 °C.

Question: With `CCNC(=O)Nc1ccc2ncc(-c3ccoc3)nc2n1` [Compound 432, 1-Ethyl-3-(3-furan-3-yl-pyrido[2,3-b]pyrazin-6-yl)-urea] as the compound, how does the melting point read?
Answer: Its melting point is 240 °C.
